These results are taken from patent US6743790B2, “Factor VIIa inhibitory (thio)urea derivatives, their preparation and their use” (Aventis Pharma Deutschland GmbH, priority 2000, dated 2004).

For the first series, the target named is T1, factor VIIa/tissue factor (Homo sapiens, UniProt P08709).
T1 construct: human factor VIIa and TF (5 nM and 10 nM, respective final concentration)
T1 sequence (P08709 213-466 limits assumed): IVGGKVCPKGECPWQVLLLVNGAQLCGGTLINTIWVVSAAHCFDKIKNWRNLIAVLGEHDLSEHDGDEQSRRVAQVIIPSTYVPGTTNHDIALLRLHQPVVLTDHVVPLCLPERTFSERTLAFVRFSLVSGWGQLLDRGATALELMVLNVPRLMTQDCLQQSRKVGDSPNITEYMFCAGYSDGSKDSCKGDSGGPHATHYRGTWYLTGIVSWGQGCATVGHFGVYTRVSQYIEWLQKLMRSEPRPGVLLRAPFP
T1 sequence (P08709 61-212 limits assumed): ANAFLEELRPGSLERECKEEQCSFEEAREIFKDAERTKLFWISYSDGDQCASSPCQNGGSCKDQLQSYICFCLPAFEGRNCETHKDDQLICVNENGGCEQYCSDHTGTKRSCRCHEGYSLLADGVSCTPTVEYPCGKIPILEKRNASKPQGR
T1 sequence (P13726 33-295 partner): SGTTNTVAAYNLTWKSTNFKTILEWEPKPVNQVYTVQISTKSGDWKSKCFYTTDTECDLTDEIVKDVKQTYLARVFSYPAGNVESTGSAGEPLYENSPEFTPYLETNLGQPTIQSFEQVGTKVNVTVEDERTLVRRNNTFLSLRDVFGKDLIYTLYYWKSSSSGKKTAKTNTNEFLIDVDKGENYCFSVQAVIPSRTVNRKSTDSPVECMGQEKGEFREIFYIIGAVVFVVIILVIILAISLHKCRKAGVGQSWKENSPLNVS
The experiment in a line: Factor VIIa (FVIIa) chromogenic assay. The class given is biochemical. As to conditions: human factor VIIa 5 nM and TF 10 nM, substrate S-2288 500 μM, 25° C., 15 minute preincubation. On the procedure: The ability of the compounds of the formula I to inhibit factor VIIa or other enzymes like factor Xa, thrombin, plasmin, or trypsin is assessed by determining the concentration of the compound of the formula I that inhibits enzyme activity by 50%, i.e. the IC50 value, which is related to the inhibition constant Ki. Purified enzymes are used in chromogenic assays. The concentration of inhibitor that causes a 50% decrease in the rate of substrate hydrolysis is determined by linear regression after plotting the relative rates of hydrolysis (compared to the uninhibited control) versus the log of the concentration of the compound of formula I. For calculating the inhibition constant Ki, the IC50 value is corrected for competition with substrate using the formula Ki=IC50/{1+(substrate concentration/Km)},
wherein Km is the Michaelis-Menten constant (Chen and Prusoff, Biochem. Pharmacol. 22 (1973), 3099-3108; I. H. Segal, Enzyme Kinetics, 1975, John Wiley & Sons, New York, 100-125; which are incorporated herein by reference).
The inhibitory activity (expressed as inhibition constant Ki(FVIIa)) of the compounds of formula I towards factor VIIa/tissue factor activity was determined using a chromogenic assay essentially as described previously (J. A. Ostrem et al., Biochemistry 37 (1998) 1053-1059 which is incorporated herein by reference). Kinetic assays were conducted at 25° C. in half-area microtiter plates (Costar Corp., Cambridge, Mass.) using a kinetic plate reader (Molecular Devices Spectramax 250). A typical assay consisted of 25 μl human factor VIIa and TF (5 nM and 10 nM, respective final concentration) combined with 40 μl of inhibitor dilutions in 10% DMSO/TBS-PEG buffer (50 mM Tris, 15 mM NaCl, 5 mM CaCl2, 0.05% PEG 8000, pH 8.15). Following a 15 minute preincubation period, the assay was initiated by the addition of 35 μl of the chromogenic substrate S-2288 (D-Ile-Pro-Arg-p-nitroanilide, Pharmacia Hepar Inc., 500 μM final concentration).
By Ki is commonly meant a measure of affinity in units of concentration, obtained from inhibition or displacement. A low value points to a stronger hold on the target. The compound `C[C@H](NC(=O)Nc1ccc(C(=N)N)cc1)C(=O)NCc1ccc(C(=N)N)cc1` [Example 1, (S)-N-(4-Carbamimidoylbenzyl)-2-[3-(4-carbamimidoylphenyl)ureido]propionamide] showed a Ki of 14900 nM.
`CN(C)c1ccc(CNC(=O)C(Cc2ccccc2)NC(=O)Nc2ccc(C(=N)N)cc2)cc1` (centres unmarked) [Example 2, 2-[3-(4-Carbamimidoylphenyl)ureido]-N-(4-dimethylaminobenzyl)-3-phenylpropionamide] registered a Ki of 20900 nM.
With `N=C(N)c1ccc(NC(=O)NCC(=O)NCc2ccc(Cl)c(Cl)c2)cc1` [Example 3, 2-[3-(4-Carbamimidoylphenyl)ureido]-N-(3,4-dichlorobenzyl)acetamide], the Ki stood at 970 nM.
The same measure, in the same setting: in the case of `CN(C)c1ccc(CNC(=O)CNC(=O)Nc2ccc(C(=N)N)cc2)cc1` [Example 4, 2-[3-(4-Carbamimidoylphenyl)ureido]-N-(4-dimethylaminobenzyl)acetamide] it was 1940 nM; in that of `N=C(N)c1ccc(NC(=O)NCC(=O)NC(c2ccccc2)c2ccccc2)cc1` [Example 5, N-Benzhydryl-2-[3-(4-carbamimidoylphenyl)ureido]acetamide], 730 nM.
On the same count and under the same terms, the same measure for `N=C(N)c1ccc(NC(=O)NCC(=O)NCc2cccc(Cl)c2)cc1` [Example 6, 2-[3-(4-carbamimidoylphenyl)ureido]-N-(3-chlorobenzyl)acetamide]: 2170 nM.
Still for that read-out and setting: the same measure for `CC(NC(=O)CNC(=O)Nc1ccc(C(=N)N)cc1)c1ccc(Oc2ccc(Cl)cc2Cl)cc1` (centres unmarked) [Example 9]: 480 nM; for `N=C(N)c1ccc(NC(=O)NCC(=O)NC(Cc2ccccc2)c2ccccc2)cc1` (centres unmarked) [Example 15]: 6300 nM.
`C[C@H](NC(=O)CNC(=O)Nc1ccc(C(=N)N)cc1)c1ccccc1` [Example 18]: the Ki amounted to 430 nM.
Same read-out and setting: the same measure for `C[C@@H](NC(=O)CNC(=O)Nc1ccc(C(=N)N)cc1)c1ccccc1` [Example 19]: 20200 nM; for `Cc1ccc([C@H](C)NC(=O)CNC(=O)Nc2ccc(C(=N)N)cc2)cc1` [Example 21]: 130 nM; for `C[C@H](NC(=O)CNC(=O)Nc1ccc(C(=N)N)cc1)c1ccc2ccccc2c1` [Example 30]: 26 nM.
In the case of `COc1ccc(Oc2ccc(C(C)NC(=O)CNC(=O)Nc3ccc(C(=N)N)cc3)cc2)cc1` (centres unmarked) [Example 36], the Ki came out at 83 nM.
In the case of `CC(NC(=O)CNC(=O)Nc1ccc(C(=N)N)cc1)c1ccc(Oc2ccc([N+](=O)[O-])cc2)cc1` (centres unmarked) [Example 37], affinity was put at a Ki of 86 nM.
For `N=C(N)c1ccc(NC(=O)NCC(=O)NCc2ccncc2)cc1` [Example 40], the inhibition constant Ki was found to be 7890 nM.
`N=C(N)c1ccc(NC(=O)NCC(=O)NC(c2ccccc2)c2ccncc2)cc1` (centres unmarked) [Example 41] displayed a Ki of 840 nM.
Still for that read-out and setting: in the case of `CC(C)(NC(=O)CNC(=O)Nc1ccc(C(=N)N)cc1)c1ccccc1` [Example 42] it was 7620 nM.
Take `N#CC(NC(=O)CNC(=O)Nc1ccc(C(=N)N)cc1)c1ccc(F)cc1` (centres unmarked) [Example 43]: the affinity corresponds to a Ki of 8470 nM.
Still for that read-out and setting: in the case of `N=C(N)c1ccc(NC(=O)NCC(=O)N[C@H]2CCc3ccccc32)cc1` [Example 44] it was 1500 nM; in that of `N=C(N)c1ccc(NC(=O)NCC(=O)N[C@H]2CCCc3ccccc32)cc1` [Example 45], 1410 nM; in that of `CC(NC(=O)CNC(=O)Nc1ccc(C(=N)N)cc1)c1ccc(NC(=O)C2CCNCC2)cc1` (centres unmarked) [Example 49, Piperidine-4-carboxylic acid 4-(1-{2-[3-(4-carbamimidoylphenyl)ureido]acetylamino}-ethyl)phenylamide], 13 nM.
`CC(NC(=O)CNC(=O)Nc1ccc(C(=N)N)cc1)c1ccc(NC(=O)c2cccnc2)cc1` (centres unmarked) [Example 51] gave a Ki of 50 nM.
Still for that read-out and setting: in the case of `CC(NC(=O)CNC(=O)Nc1ccc(C(=N)N)cc1)c1ccc(NC(=O)c2cccc(Oc3ccccc3)c2)cc1` (centres unmarked) [Example 52] it was 12 nM; in that of `CC(NC(=O)CNC(=O)Nc1ccc(C(=N)N)cc1)c1ccc(NC(=O)CCCN)cc1` (centres unmarked) [Example 54], 47 nM; in that of `CC(NC(=O)CNC(=O)Nc1ccc(C(=N)N)cc1)c1ccc(C(F)(F)F)cc1C(F)(F)F` (centres unmarked) [Example 60], 27 nM.
Still for that read-out and setting: in the case of `CC(NC(=O)CNC(=O)Nc1ccc(C(=N)N)cc1)c1ccc2c(c1)NC(=O)CO2` (centres unmarked) [Example 61] it was 23 nM; in that of `COC(=O)c1cc(C(C)NC(=O)CNC(=O)Nc2ccc(C(=N)N)cc2)ccc1OCc1ccccc1` (centres unmarked) [Example 64], 33 nM.
On the same count and under the same terms, the same measure for `CC(NC(=O)CNC(=O)Nc1ccc(C(=N)N)c(Cl)c1)c1ccc2c(c1)OCCO2` (centres unmarked) [Example 68, 2-[3-(4-Carbamimidoyl-3-chlorophenyl)ureido]-N-[1-(2,3-dihydrobenzo[1,4]dioxin-6-yl)ethyl]acetamide]: 3940 nM; for `C[C@H](NC(=O)CNC(=O)Nc1ccc(C(=N)N)c(F)c1)c1cccc(Br)c1` [Example 69, N-[(S)-1-(3-Bromophenyl)ethyl]-2-[3-(4-carbamimidoyl-3-fluorophenyl)ureido]-acetamide]: 116 nM.
`C[C@H](NC(=O)[C@H](CCC(=O)O)NC(=O)Nc1ccc(C(=N)N)cc1)c1cccc(Br)c1` [Example 70, (S)-4-[((S)-1-(3-Bromophenyl)ethyl)carbamoyl]-4-[3-(4-carbamimidoylphenyl)ureido]-butyric Acid] registered a Ki of 539 nM.

Test system in another series: not given
Assay: not given
Conditions: not given
As usually defined, the melting point is the temperature of the solid-liquid transition. `CN(C)c1ccc(CNC(=O)C(Cc2ccccc2)NC(=O)Nc2ccc(C(=N)N)cc2)cc1` (centres unmarked) [Example 2, 2-[3-(4-Carbamimidoylphenyl)ureido]-N-(4-dimethylaminobenzyl)-3-phenylpropionamide]: the melting point amounted to 147 °C.
The same measure, in the same setting: in the case of `CN(C)c1ccc(CNC(=O)CNC(=O)Nc2ccc(C(=N)N)cc2)cc1` [Example 4, 2-[3-(4-Carbamimidoylphenyl)ureido]-N-(4-dimethylaminobenzyl)acetamide] it was 209 to 214 °C.
